# From the kinase profiling compilation of Christmann-Franck et al. (2016)
# Legend:
# Test in all cases: radiometric filter-binding kinase assay
# [1] = system: AKT2 (human), P31751 [S474D]
# CAMKK2 (human) = CAMKK2 (human) (UniProt Q96RR4)
# CHEK1 (human) = CHEK1 (human) (UniProt O14757)
# CLK2 (human) = CLK2 (human) (UniProt P49760)
# CSNK1D (human) = CSNK1D (human) (UniProt P48730)
# DYRK1A (human) = DYRK1A (human) (UniProt Q13627)
# EPHA4 (human) = EPHA4 (human) (UniProt P54764)
# HIPK3 (human) = HIPK3 (human) (UniProt Q9H422)
# IGF1R (human) = IGF1R (human) (UniProt P08069)
# IKBKE (human) = IKBKE (human) (UniProt Q14164)
# IRAK4 (human) = IRAK4 (human) (UniProt Q9NWZ3)
# MAP3K7 TAB1 (human) = MAP3K7 TAB1 (human) (UniProt Q15750+O43318)
# MAPK12 (human) = MAPK12 (human) (UniProt P53778)
# MAPK14 (human) = MAPK14 (human) (UniProt Q16539)
# MAPK15 (human) = MAPK15 (human) (UniProt Q8TD08)
# MAPK15 (human), sequence (Q8TD08 whole entry, looked up): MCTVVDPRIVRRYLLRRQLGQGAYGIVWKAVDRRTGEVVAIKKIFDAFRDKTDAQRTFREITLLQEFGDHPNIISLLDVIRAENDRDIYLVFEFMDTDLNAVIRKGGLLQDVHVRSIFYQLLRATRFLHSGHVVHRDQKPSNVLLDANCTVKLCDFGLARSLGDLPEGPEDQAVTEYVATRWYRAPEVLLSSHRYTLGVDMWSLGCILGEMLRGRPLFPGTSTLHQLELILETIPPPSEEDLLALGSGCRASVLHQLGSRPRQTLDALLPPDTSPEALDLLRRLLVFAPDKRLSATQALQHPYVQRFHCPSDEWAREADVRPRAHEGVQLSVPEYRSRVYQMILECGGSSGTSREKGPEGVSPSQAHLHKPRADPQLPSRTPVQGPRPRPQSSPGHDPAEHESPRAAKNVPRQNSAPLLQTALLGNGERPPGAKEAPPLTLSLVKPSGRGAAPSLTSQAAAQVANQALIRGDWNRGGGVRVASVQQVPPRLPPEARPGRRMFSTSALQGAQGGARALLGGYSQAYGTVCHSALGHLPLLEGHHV
# MAPK3 (human) = MAPK3 (human) (UniProt P27361)
# MAPKAPK2 (human) = MAPKAPK2 (human) (UniProt P49137)
# MARK1 (human) = MARK1 (human) (UniProt Q9P0L2)
# MARK2 (human) = MARK2 (human) (UniProt Q7KZI7)
# MARK2 (human), sequence (Q7KZI7 whole entry, looked up): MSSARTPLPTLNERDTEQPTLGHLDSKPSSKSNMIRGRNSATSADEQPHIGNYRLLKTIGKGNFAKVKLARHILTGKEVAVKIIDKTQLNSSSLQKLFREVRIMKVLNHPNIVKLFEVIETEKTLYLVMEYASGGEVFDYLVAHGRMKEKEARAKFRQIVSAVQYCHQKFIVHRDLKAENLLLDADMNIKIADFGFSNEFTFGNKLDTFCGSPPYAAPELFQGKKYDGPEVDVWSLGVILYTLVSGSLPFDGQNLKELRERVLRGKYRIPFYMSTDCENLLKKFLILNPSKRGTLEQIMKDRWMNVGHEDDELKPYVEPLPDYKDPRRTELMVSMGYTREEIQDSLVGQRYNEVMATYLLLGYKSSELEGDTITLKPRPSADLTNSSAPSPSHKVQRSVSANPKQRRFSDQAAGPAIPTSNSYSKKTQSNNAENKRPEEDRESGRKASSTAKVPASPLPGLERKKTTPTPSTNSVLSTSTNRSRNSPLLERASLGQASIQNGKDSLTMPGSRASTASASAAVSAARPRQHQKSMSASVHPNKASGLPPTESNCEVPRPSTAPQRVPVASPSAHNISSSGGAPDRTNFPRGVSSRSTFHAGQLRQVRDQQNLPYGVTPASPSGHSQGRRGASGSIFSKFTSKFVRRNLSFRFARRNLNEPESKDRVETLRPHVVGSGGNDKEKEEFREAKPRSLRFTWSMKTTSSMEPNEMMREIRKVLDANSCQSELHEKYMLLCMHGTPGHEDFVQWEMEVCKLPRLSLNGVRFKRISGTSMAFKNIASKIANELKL
# MST4 (human) = MST4 (human) (UniProt Q9P289)
# NEK2 (human) = NEK2 (human) (UniProt P51955)
# NEK6 (human) = NEK6 (human) (UniProt Q9HC98)
# [2] = system: PAK2 (human), Q13177 [T402E]
# PAK4 (human) = PAK4 (human) (UniProt O96013)
# PAK4 (human), sequence (O96013 whole entry, looked up): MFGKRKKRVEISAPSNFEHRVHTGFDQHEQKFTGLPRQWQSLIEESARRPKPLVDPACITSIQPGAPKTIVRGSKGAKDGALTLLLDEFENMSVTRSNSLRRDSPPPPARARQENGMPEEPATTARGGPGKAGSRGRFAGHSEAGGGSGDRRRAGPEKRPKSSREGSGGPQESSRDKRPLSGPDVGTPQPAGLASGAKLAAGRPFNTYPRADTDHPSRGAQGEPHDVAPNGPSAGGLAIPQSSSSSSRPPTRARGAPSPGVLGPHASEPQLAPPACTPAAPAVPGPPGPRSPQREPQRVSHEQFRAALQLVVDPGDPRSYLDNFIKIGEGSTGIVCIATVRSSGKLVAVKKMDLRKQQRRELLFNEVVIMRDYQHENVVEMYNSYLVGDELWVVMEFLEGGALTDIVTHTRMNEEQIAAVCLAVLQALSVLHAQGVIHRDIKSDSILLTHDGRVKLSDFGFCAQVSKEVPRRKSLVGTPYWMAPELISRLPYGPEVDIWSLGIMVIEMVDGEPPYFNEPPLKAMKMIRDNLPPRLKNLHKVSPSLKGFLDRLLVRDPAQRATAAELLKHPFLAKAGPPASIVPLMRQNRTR
# PAK6 (human) = PAK6 (human) (UniProt Q9NQU5)
# PAK7 (human) = PAK7 (human) (UniProt Q9P286)
# PIM2 (human) = PIM2 (human) (UniProt Q9P1W9)
# PIM3 (human) = PIM3 (human) (UniProt Q86V86)
# PKN2 (human) = PKN2 (human) (UniProt Q16513)
# PLK1 (human) = PLK1 (human) (UniProt P53350)
# RIPK2 (human) = RIPK2 (human) (UniProt O43353)
# RIPK2 (human), sequence (O43353 whole entry, looked up): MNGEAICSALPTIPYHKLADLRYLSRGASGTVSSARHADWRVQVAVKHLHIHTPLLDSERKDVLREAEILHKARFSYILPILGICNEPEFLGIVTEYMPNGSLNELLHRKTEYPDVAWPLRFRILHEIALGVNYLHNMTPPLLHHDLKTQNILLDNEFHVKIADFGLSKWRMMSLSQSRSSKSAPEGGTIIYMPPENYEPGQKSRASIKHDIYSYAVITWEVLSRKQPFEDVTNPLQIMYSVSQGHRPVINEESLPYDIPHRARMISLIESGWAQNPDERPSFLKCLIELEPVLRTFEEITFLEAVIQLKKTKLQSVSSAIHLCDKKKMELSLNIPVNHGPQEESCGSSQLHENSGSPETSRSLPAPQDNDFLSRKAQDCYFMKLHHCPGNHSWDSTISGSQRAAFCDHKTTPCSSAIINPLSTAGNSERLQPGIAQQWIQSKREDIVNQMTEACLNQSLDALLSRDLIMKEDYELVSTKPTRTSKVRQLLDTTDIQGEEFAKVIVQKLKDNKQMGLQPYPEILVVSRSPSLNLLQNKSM
# RPS6KA3 KD1 KD2 (human) = RPS6KA3 KD1 KD2 (human) (UniProt P51812)
# RPS6KA3 KD1 KD2 (human), sequence (P51812 whole entry, looked up): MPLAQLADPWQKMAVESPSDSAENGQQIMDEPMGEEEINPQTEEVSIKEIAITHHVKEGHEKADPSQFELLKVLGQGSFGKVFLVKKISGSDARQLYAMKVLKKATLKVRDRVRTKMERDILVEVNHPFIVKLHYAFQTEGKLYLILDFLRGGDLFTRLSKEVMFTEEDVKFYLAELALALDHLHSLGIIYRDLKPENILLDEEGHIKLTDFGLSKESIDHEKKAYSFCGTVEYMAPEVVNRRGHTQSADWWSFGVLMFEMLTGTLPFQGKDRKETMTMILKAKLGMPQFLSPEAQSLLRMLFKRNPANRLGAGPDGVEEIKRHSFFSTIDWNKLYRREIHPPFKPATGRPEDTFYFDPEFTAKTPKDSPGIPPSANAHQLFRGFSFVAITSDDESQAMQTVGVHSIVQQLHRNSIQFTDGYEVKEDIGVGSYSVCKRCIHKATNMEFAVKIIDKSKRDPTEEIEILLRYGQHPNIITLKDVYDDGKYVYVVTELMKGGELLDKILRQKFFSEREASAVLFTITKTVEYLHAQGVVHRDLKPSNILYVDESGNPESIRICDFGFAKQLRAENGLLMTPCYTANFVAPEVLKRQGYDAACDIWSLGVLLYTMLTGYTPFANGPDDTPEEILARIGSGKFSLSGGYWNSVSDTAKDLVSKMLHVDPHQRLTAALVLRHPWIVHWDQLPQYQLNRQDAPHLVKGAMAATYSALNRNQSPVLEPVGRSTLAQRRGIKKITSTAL
# RPS6KA5 KD1 KD2 (human) = RPS6KA5 KD1 KD2 (human) (UniProt O75582)
# [3] = system: SGK1 (human), O00141 [S422D]
# SRPK1 (human) = SRPK1 (human) (UniProt Q96SB4)
# SRPK1 (human), sequence (Q96SB4 whole entry, looked up): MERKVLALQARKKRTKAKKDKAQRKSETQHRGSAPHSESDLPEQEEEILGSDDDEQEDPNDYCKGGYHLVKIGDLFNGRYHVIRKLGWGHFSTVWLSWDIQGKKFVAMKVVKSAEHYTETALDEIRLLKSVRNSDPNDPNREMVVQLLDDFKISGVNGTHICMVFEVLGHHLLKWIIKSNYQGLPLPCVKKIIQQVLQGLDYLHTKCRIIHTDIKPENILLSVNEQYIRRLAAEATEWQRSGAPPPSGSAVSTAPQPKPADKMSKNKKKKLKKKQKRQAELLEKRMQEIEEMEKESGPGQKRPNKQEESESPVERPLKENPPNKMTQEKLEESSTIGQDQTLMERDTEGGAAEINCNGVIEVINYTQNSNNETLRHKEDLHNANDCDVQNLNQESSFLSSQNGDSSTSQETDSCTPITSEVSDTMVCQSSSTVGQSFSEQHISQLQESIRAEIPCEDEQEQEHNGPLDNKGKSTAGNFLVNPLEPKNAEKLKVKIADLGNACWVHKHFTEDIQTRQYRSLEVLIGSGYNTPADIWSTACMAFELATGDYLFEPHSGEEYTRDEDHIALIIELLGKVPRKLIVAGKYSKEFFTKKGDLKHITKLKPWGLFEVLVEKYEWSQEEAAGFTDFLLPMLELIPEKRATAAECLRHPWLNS
# CSNK1D (human), sequence (P48730 whole entry, looked up): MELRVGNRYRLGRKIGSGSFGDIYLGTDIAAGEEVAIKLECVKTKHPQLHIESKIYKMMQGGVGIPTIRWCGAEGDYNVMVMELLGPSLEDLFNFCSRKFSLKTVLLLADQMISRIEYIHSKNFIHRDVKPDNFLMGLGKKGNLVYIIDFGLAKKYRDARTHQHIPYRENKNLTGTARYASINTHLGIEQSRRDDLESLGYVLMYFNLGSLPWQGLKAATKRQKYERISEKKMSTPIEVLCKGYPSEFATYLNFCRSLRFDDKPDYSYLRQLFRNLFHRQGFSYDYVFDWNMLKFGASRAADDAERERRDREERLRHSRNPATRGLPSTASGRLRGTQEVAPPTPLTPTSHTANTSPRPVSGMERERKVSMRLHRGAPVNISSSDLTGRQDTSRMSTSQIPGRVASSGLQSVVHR
# CAMKK2 (human), sequence (Q96RR4 whole entry, looked up): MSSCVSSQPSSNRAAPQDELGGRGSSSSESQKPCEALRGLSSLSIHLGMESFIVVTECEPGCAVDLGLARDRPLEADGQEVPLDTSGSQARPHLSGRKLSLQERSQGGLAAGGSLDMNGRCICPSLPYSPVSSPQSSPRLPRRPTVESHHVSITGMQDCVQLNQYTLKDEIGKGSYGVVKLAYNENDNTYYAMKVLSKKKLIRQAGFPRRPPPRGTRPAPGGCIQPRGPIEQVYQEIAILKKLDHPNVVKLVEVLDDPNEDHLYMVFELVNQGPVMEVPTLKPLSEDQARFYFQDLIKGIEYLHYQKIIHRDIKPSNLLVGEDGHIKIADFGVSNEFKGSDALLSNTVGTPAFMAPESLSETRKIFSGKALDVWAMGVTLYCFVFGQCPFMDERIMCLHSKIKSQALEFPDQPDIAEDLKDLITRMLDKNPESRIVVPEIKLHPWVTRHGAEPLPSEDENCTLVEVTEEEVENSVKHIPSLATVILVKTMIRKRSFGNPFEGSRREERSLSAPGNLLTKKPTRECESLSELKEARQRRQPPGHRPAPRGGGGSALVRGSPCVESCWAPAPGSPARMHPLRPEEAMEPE
smiles,measurement,setting,value
CNc1nc(-c2ccc3c(N)n[nH]c3c2)cc(N2C[C@@H](C(=O)NC3CCCCC3)CC[C@H]2C)n1,residual activity,[1]; compound 0.01 µM,125%
same,residual activity,[1]; compound 0.1 µM,118%
same,residual activity,[1]; compound 1.0 µM,107%
same,residual activity,[1]; compound 10.0 µM,56%
same,residual activity,CAMKK2 (human); compound 0.01 µM,112%
same,residual activity,CAMKK2 (human); compound 0.1 µM,123%
same,residual activity,CAMKK2 (human); compound 1.0 µM,99%
same,residual activity,CAMKK2 (human); compound 10.0 µM,91%
same,residual activity,CHEK1 (human); compound 0.01 µM,111%
same,residual activity,CHEK1 (human); compound 0.1 µM,106%
same,residual activity,CHEK1 (human); compound 1.0 µM,96%
same,residual activity,CHEK1 (human); compound 10.0 µM,103%
same,residual activity,CLK2 (human); compound 1.0 µM,98%
same,residual activity,CLK2 (human); compound 10.0 µM,88%
same,residual activity,CSNK1D (human); compound 0.01 µM,100%
same,residual activity,CSNK1D (human); compound 0.1 µM,108%
same,residual activity,CSNK1D (human); compound 1.0 µM,96%
same,residual activity,CSNK1D (human); compound 10.0 µM,88%
same,residual activity,DYRK1A (human); compound 0.01 µM,102%
same,residual activity,DYRK1A (human); compound 0.1 µM,107%
same,residual activity,DYRK1A (human); compound 1.0 µM,92%
same,residual activity,DYRK1A (human); compound 10.0 µM,82%
same,residual activity,EPHA4 (human); compound 1.0 µM,86%
same,residual activity,EPHA4 (human); compound 10.0 µM,98%
same,residual activity,HIPK3 (human); compound 0.01 µM,111%
same,residual activity,HIPK3 (human); compound 0.1 µM,105%
same,residual activity,HIPK3 (human); compound 1.0 µM,99%
same,residual activity,HIPK3 (human); compound 10.0 µM,103%
same,residual activity,IGF1R (human); compound 0.1 µM,115%
same,residual activity,IGF1R (human); compound 1.0 µM,98%
same,residual activity,IGF1R (human); compound 10.0 µM,100%
same,residual activity,IKBKE (human); compound 0.01 µM,114%
same,residual activity,IKBKE (human); compound 0.1 µM,97%
same,residual activity,IKBKE (human); compound 1.0 µM,91%
same,residual activity,IKBKE (human); compound 10.0 µM,45%
same,residual activity,IRAK4 (human); compound 0.01 µM,109%
same,residual activity,IRAK4 (human); compound 0.1 µM,112%
same,residual activity,IRAK4 (human); compound 1.0 µM,92%
same,residual activity,IRAK4 (human); compound 10.0 µM,99%
same,residual activity,MAP3K7 TAB1 (human); compound 1.0 µM,99%
same,residual activity,MAP3K7 TAB1 (human); compound 10.0 µM,79%
same,residual activity,MAPK12 (human); compound 0.01 µM,109%
same,residual activity,MAPK12 (human); compound 0.1 µM,110%
same,residual activity,MAPK12 (human); compound 1.0 µM,99%
same,residual activity,MAPK12 (human); compound 10.0 µM,110%
same,residual activity,MAPK14 (human); compound 0.01 µM,105%
same,residual activity,MAPK14 (human); compound 0.1 µM,109%
same,residual activity,MAPK14 (human); compound 1.0 µM,100%
same,residual activity,MAPK14 (human); compound 10.0 µM,99%
same,residual activity,MAPK15 (human); compound 0.01 µM,106%
same,residual activity,MAPK15 (human); compound 0.1 µM,117%
same,residual activity,MAPK15 (human); compound 1.0 µM,99%
same,residual activity,MAPK15 (human); compound 10.0 µM,83%
same,residual activity,MAPK3 (human); compound 0.01 µM,93%
same,residual activity,MAPK3 (human); compound 0.1 µM,106%
same,residual activity,MAPK3 (human); compound 1.0 µM,103%
same,residual activity,MAPK3 (human); compound 10.0 µM,108%
same,residual activity,MAPKAPK2 (human); compound 0.01 µM,104%
same,residual activity,MAPKAPK2 (human); compound 0.1 µM,111%
same,residual activity,MAPKAPK2 (human); compound 1.0 µM,86%
same,residual activity,MAPKAPK2 (human); compound 10.0 µM,84%
same,residual activity,MARK1 (human); compound 1.0 µM,99%
same,residual activity,MARK1 (human); compound 10.0 µM,84%
same,residual activity,MARK2 (human); compound 0.01 µM,113%
same,residual activity,MARK2 (human); compound 0.1 µM,114%
same,residual activity,MARK2 (human); compound 1.0 µM,96%
same,residual activity,MARK2 (human); compound 10.0 µM,102%
same,residual activity,MST4 (human); compound 0.01 µM,112%
same,residual activity,MST4 (human); compound 0.1 µM,108%
same,residual activity,MST4 (human); compound 1.0 µM,102%
same,residual activity,MST4 (human); compound 10.0 µM,102%
same,residual activity,NEK2 (human); compound 0.01 µM,118%
same,residual activity,NEK2 (human); compound 0.1 µM,118%
same,residual activity,NEK2 (human); compound 1.0 µM,94%
same,residual activity,NEK2 (human); compound 10.0 µM,91%
same,residual activity,NEK6 (human); compound 0.01 µM,98%
same,residual activity,NEK6 (human); compound 0.1 µM,101%
same,residual activity,NEK6 (human); compound 1.0 µM,84%
same,residual activity,NEK6 (human); compound 10.0 µM,79%
same,residual activity,[2]; compound 0.01 µM,105%
same,residual activity,[2]; compound 0.1 µM,119%
same,residual activity,[2]; compound 1.0 µM,102%
same,residual activity,[2]; compound 10.0 µM,77%
same,residual activity,PAK4 (human); compound 0.01 µM,108%
same,residual activity,PAK4 (human); compound 0.1 µM,117%
same,residual activity,PAK4 (human); compound 1.0 µM,100%
same,residual activity,PAK6 (human); compound 0.01 µM,108%
same,residual activity,PAK6 (human); compound 0.1 µM,120%
same,residual activity,PAK6 (human); compound 1.0 µM,99%
same,residual activity,PAK6 (human); compound 10.0 µM,96%
same,residual activity,PAK7 (human); compound 0.01 µM,97%
same,residual activity,PAK7 (human); compound 0.1 µM,101%
same,residual activity,PAK7 (human); compound 1.0 µM,97%
same,residual activity,PAK7 (human); compound 10.0 µM,99%
same,residual activity,PIM2 (human); compound 0.01 µM,97%
same,residual activity,PIM2 (human); compound 1.0 µM,97%
same,residual activity,PIM2 (human); compound 10.0 µM,110%
same,residual activity,PIM3 (human); compound 0.01 µM,105%
same,residual activity,PIM3 (human); compound 0.1 µM,112%
same,residual activity,PIM3 (human); compound 1.0 µM,94%
same,residual activity,PIM3 (human); compound 10.0 µM,73%
same,residual activity,PKN2 (human); compound 0.01 µM,90%
same,residual activity,PKN2 (human); compound 0.1 µM,102%
same,residual activity,PKN2 (human); compound 1.0 µM,118%
same,residual activity,PKN2 (human); compound 10.0 µM,81%
same,residual activity,PLK1 (human); compound 0.01 µM,95%
same,residual activity,PLK1 (human); compound 0.1 µM,113%
same,residual activity,RIPK2 (human); compound 0.01 µM,110%
same,residual activity,RIPK2 (human); compound 0.1 µM,114%
same,residual activity,RIPK2 (human); compound 1.0 µM,116%
same,residual activity,RIPK2 (human); compound 10.0 µM,100%
same,residual activity,RPS6KA3 KD1 KD2 (human); compound 0.1 µM,97%
same,residual activity,RPS6KA3 KD1 KD2 (human); compound 1.0 µM,79%
same,residual activity,RPS6KA3 KD1 KD2 (human); compound 10.0 µM,28%
same,residual activity,RPS6KA5 KD1 KD2 (human); compound 0.01 µM,102%
same,residual activity,RPS6KA5 KD1 KD2 (human); compound 0.1 µM,100%
same,residual activity,RPS6KA5 KD1 KD2 (human); compound 1.0 µM,95%
same,residual activity,RPS6KA5 KD1 KD2 (human); compound 10.0 µM,66%
same,residual activity,[3]; compound 0.01 µM,96%
same,residual activity,[3]; compound 0.1 µM,96%
same,residual activity,[3]; compound 1.0 µM,81%
same,residual activity,[3]; compound 10.0 µM,37%
same,residual activity,SRPK1 (human); compound 0.01 µM,106%
same,residual activity,SRPK1 (human); compound 0.1 µM,120%
same,residual activity,SRPK1 (human); compound 1.0 µM,104%
same,residual activity,SRPK1 (human); compound 10.0 µM,90%
